Measurements published in patent US20180369195A1, “COMBINATION THERAPY FOR TREATMENT OF MELANOMA” (The Regents of the University of California, priority 2015, published 2018).

Columns and labels:
canonical Wnt signaling = assay: TOP Flash Wnt reporter assay in G361 cells; type: cell-based, human
Protocol: Murine fibroblast L cells stably transfected with a construct expressing high levels of human Wnt3A were used. The cells were grown in DMEM containing 4.5 g/L Glucose, 114 mg/L Sodium Pyruvate, and 2 mM L-glutamine, supplemented with 10% fetal bovine serum (Gemini Bio Products), 2 mM L-glutamine, and 2.5 ml of 10,000 U/ml penicillin/streptomycin mixture (Gibco, Life Technologies). Conditioned media was harvested in two batches, once during routine media change after 2 days of seeding the cells and once more when the plates were confluent. The cells were trypsinized as described earlier using 0.025% trypsin (Lonza) and pelleting the cells by a spin at 4000 rpm for 5 minutes and aspirating and filtering the supernatant through a 0.2 micron filter to obtain the conditioned media. The two batches of conditioned media were mixed 1:1 and stored in aliquots at −80° C. for future use.
The TOPflash/FOPflash (Millipore) reporter assay was performed on G361 cells to assess the effect of 1-benzyl I3C on β-catenin driven Wnt transcriptional activity. TOPflash is a TCF/LEF responsive luciferase construct encoding the firefly luciferase reporter under the control of a minimal (m) CMV promoter and tandem repeats of a TCF/LEF transcriptional response element (TRE). FOPflash is a similar construct with the LEF-1 binding site mutated which serves as the negative control. G361 cells were cultured to approximately 80% confluency in a 6 well clear bottom plate (Nunc). The TOPflash/FOPflash construct was transfected using Superfect Transfection Reagent (Qiagen.) according to the manufactures instructions. […] 20 μl of supernatant from each sample was combined with 100 μl luciferase substrate (Promega) and emitted fluorescence was measured using luminometer, Lumat LB 9507 (EG&G Berthold) and the relative light units (RLU) were recorded. The RLU/μg for each sample was calculated by dividing the data obtained with their specific protein concentration determined by a Bradford assay using 1× BioRad Protein Assay reagent and measuring O.D at 595 nm. […]

[1] = test system: G-361 cell-derived tumor xenografts; assay: G-361 melanoma tumor xenograft growth in athymic nude mice; type: in vivo
Protocol: Approximately 1 million G361 melanoma cells in a total volume of 0.1 ml of Matrigel were injected subcutaneously into each lateral flank of NIH III athymic nude mice. The resulting tumors were allowed to grow to a mean starting volume of 146±10 mm^3. […] The resulting tumor volumes were measured every other day for four weeks using calipers. The tumor volumes were calculated using the standard formula: (Width×Length)/2, and changes in tumor volumes were calculated using the formula: 100+{(Tf−Ti)/Ti×100}, where Tf is the final mean tumor volume and Ti is the initial mean tumor volume. At terminal sacrifice, tumor xenografts were harvested, and a portion of each tumor was fixed in 4% para-formaldehyde for 1 hour at room temperature, followed by a phosphate-buffered saline (PBS) wash and subsequently immersed in […] overnight at 4° C. The resulting tissues were embedded in OCT and 10 μm thin sections were taken for immunofluorescence studies.

[2] = test system: multiple melanoma cell lines; assay: Flow cytometry analysis of DNA content, multiple melanoma cell lines; type: cell-based, human
Protocol: Melanoma cells were treated with the indicated concentrations of 1-benzyl I3C in triplicates every 24 hours and harvested at the end of 24, 48 or 72 hours for cell cycle analysis. The DNA content of propidium iodide stained nuclei from harvested cells were determined by flow cytometry. Briefly, cells were hypotonically lysed in […] of DNA staining solution (0.5 mg/mL propidium iodide, 0.1% sodium citrate, and 0.05% Triton-X 100). Emitted fluorescence from the nuclear of wavelengths more than 585 nm was measured with a Coulter Elite instrument with laser output adjusted to deliver 15 mW at 488 nm. Ten thousand nuclei were analyzed from each sample at a rate of 300-500 nuclei/second. The percentage of cells within the G1, S, and G2/M phases of the cell cycle were determined by analysis with the Multicycle computer program provided by Phoenix Flow Systems in the Cancer Research Laboratory Microchemical Facility of the University of California, Berkeley.

CDK 2, 4, 6 = assay: Western blot of key cell cycle regulators; type: cell-based, human; details: melanoma cell lines, 1-benzyl I3C, 24, 48, 72 hours
Protocol: Western Blot analyses of samples electrophoretically fractionated on 12% acrylamide gels were carried out as previously described (Wagle et al., J. Clin. Oncol. 2011. 29(22):3085-3096; Nguyen et al., Chem. Biol. Interact. 2010. 186(3):255-266). Enhanced chemiluminescence (ECL) Lightening reagents were used to visualize the primary antibody bound protein bands in nitrocellulose membranes and the results captured on ECL Autoradiography Film (GE Healthcare, Piscataway, N.J.). The western blots employed the following primary antibodies: mouse anti-MITF-M (Thermo-scientific), mouse anti-HSP 90 (BD Biosciences), mouse anti-CDK2, rabbit anti-CDK4, rabbit anti-CDK-6, mouse anti-rabbit BRAF, goat anti-LEF-1, rabbit anti-AXIN, mouse anti-BCL2, (Santa Cruz), rabbit anti-P21, mouse anti-Cyclin D1, rabbit anti-MEK-p, rabbit anti-MEK1/2, rabbit anti-GSK3β rabbit anti-LRP6, rabbit anti-LRP6-phospho (Cell signaling), mouse anti-β-catenin (Invitrogen).

wild type BRAF = molecular target: T1, wild type BRAF (Homo sapiens, UniProt P15056); assay: In vitro BRAF kinase assay, in-vitro treated wild type BRAF from SK-MEL-2 cells; type: biochemical; details: pre-incubated 2 hours; 200 μM or 400 μM I3C, 10 μM Vemurafenib
T1 construct: Wild type BRAF was immunoprecipitated from SK-MEL-2 melanoma cells; endogenous in cells; host or cells: SK-MEL-2 human melanoma cells (ATCC)
Protocol: BRAF was pulled down from the cell lysates using anti-BRAF antibodies bound to protein G-coupled Sepharose beads, while IgG was used as a negative control. Post-immunoprecipitation supernatants were probed with anti BRAF antibody by western blots to determine pull-down efficiency. […] The reactions were terminated by adding 4× sodium dodecyl sulfate (SDS) sample buffer and boiling the mixture at 100° C. for 5 min. The samples were then electrophoresed, immunoblotted and probed for relative protein levels of phosphorylated MEK and total MEK to assess the kinase activity of the immunoprecipitated BRAF.

phosphorylated MEK = assay: Western blot of phosphorylated MEK; type: cell-based, human; details: 200 μM I3C, 72 hour time course
Protocol: Western Blot analyses of samples electrophoretically fractionated on 12% acrylamide gels were carried out as previously described (Wagle et al., J. Clin. Oncol. 2011. 29(22):3085-3096; Nguyen et al., Chem. Biol. Interact. 2010. 186(3):255-266). […] The western blots employed the following primary antibodies: mouse anti-MITF-M (Thermo-scientific), mouse anti-HSP 90 (BD Biosciences), mouse anti-CDK2, rabbit anti-CDK4, rabbit anti-CDK-6, mouse anti-rabbit BRAF, goat anti-LEF-1, rabbit anti-AXIN, mouse anti-BCL2, (Santa Cruz), rabbit anti-P21, mouse anti-Cyclin D1, rabbit anti-MEK-p, rabbit anti-MEK1/2, rabbit anti-GSK3β rabbit anti-LRP6, rabbit anti-LRP6-phospho (Cell signaling), mouse anti-β-catenin (Invitrogen).

T1 sequence (P15056 whole entry): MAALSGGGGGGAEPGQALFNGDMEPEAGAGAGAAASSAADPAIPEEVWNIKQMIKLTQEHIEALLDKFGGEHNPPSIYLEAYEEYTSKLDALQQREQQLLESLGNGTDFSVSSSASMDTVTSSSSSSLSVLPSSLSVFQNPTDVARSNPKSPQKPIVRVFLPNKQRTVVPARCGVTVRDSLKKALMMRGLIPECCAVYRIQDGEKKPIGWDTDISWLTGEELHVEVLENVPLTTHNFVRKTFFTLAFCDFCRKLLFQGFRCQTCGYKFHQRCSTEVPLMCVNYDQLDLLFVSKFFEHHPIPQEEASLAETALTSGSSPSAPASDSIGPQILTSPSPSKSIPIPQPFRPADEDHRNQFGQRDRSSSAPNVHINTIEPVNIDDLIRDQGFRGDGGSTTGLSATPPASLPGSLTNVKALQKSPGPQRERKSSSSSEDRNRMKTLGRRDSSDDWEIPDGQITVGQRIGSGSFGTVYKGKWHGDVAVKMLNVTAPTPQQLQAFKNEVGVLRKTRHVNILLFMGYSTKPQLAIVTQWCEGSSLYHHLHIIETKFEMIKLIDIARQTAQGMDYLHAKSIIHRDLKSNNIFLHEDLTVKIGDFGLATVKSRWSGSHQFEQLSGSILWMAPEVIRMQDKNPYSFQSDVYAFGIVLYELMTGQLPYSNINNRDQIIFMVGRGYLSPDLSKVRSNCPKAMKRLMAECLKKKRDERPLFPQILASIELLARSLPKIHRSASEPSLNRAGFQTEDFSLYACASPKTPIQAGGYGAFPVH

wild type BRAF enzymatic activity, direct in vitro incubation (wild type BRAF) | SMILES | Wnt signaling (TOP luciferase activity) (canonical Wnt signaling; G361 cells in Wnt conditioned media, 1-benzyl I3C 24 hours) | 1-benzyl I3C induced inhibition of luciferase activity, constitutively active LRP6 transfected cells (canonical Wnt signaling; G361 cells, 1-benzyl I3C 24 hours) | Wnt signaling (luciferase activity), wild-type vector transfected cells (canonical Wnt signaling; G361 cells, 1-benzyl I3C 24 hours vs vehicle) | tumor growth ([1]; 1-benzyl I3C 20 mg/kg body weight subcutaneously everyday, 4-week time course, vs vehicle) | size of the residual tumors at termination of treatment ([1]; 1-benzyl I3C 20 mg/kg, week 4) | time to significant G1 cell cycle arrest ([2]; 20 μM 1-benzyl I3C, all the cell lines) [h] | G1 cell cycle arrest ([2]; varying doses of 1-benzyl I3C, 48 hours) | levels of key cell cycle regulators (CDK 2, 4, 6) | tumor growth ([1]; I3C 200 mg/kg body weight injected daily, four-week course, vs DMSO vehicle) | phosphorylated MEK levels (phosphorylated MEK; G-361 and DM738 cells) | phosphorylated MEK levels (phosphorylated MEK; SK-MEL-2 cells)
 | OCc1cn(Cc2ccccc2)c2ccccc12 [1-benzyl I3C, 1-benzyl indole-3-carbinol] | Wnt signaling was significantly attenuated | significantly rescued | significantly inhibited the Wnt signaling | strongly attenuated tumor growth | significantly smaller than the vehicle control | ≤ 24 | significant G1 cell cycle arrest | downregulation of key cell cycle regulators like CDK 2, 4, 6 |  |  | 
no effect | OCc1c[nH]c2ccccc12 [I3C, indole-3-carbinol] |  |  |  |  |  |  |  |  | strongly inhibited tumor growth | strongly down regulated | no effect
